Measured values reported in ChEMBL document CHEMBL1124620, “New 1,4-dihydropyridine derivatives combining calcium antagonism and alpha-adrenolytic properties” (J Med Chem, 1989).

How the values were obtained:
[1] = target: T1, Adrenergic receptor alpha-1 (Rattus norvegicus, UniProt P15823+P23944+P43140); experiment: Alpha-1-adrenolytic activity was assessed in vitro from the ability to inhibit norepinephrine-induced contraction of rat aorta preparation
T1 sequence (P15823 whole entry): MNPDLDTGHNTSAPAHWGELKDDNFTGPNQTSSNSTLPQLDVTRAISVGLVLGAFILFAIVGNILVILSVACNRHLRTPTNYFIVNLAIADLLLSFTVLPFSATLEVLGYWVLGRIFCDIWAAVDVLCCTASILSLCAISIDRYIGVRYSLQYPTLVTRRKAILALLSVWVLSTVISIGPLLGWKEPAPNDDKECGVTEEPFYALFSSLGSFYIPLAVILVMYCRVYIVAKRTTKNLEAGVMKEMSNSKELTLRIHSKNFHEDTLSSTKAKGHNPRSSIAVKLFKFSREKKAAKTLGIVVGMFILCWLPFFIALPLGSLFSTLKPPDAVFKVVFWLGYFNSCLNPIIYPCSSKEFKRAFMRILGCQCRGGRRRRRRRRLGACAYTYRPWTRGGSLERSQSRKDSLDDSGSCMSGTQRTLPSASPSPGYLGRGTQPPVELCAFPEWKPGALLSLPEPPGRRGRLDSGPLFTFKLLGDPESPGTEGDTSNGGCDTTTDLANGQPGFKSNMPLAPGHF
T1 sequence (P23944 whole entry): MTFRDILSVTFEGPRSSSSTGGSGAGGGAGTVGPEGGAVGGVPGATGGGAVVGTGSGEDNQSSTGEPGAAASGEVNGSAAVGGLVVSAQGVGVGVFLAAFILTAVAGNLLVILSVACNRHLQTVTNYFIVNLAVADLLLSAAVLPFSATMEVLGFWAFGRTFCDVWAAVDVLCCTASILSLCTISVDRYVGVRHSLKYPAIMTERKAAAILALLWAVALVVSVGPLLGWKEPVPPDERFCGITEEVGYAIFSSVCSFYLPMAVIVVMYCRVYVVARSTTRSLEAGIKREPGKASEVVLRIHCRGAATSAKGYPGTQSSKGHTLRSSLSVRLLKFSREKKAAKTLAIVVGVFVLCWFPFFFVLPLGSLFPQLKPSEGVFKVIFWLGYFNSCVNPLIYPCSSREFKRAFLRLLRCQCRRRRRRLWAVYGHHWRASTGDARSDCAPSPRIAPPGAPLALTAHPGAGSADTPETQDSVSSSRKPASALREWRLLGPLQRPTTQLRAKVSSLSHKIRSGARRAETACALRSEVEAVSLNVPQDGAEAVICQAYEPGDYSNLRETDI
T1 sequence (P43140 whole entry): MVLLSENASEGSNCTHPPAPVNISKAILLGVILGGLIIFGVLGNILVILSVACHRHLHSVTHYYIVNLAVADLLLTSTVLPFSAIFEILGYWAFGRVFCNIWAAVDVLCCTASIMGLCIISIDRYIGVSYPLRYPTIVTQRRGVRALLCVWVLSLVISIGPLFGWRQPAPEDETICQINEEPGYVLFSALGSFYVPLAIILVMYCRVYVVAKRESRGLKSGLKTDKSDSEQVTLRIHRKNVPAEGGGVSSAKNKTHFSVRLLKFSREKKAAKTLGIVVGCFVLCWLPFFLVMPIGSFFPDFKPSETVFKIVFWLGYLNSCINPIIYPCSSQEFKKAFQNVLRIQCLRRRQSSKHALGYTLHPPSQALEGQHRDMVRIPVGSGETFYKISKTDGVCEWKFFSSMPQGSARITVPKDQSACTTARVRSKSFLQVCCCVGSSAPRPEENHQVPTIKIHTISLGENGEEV

[2] = target: T2, Adrenergic receptor alpha-2 (Rattus norvegicus, UniProt P22086+P19328+P22909); experiment: Ability to inhibit [3H]yohimbine binding to alpha-2 adrenergic receptor of rat cerebral cortex preparation; format: tissue-based
T2 sequence (P22086 whole entry): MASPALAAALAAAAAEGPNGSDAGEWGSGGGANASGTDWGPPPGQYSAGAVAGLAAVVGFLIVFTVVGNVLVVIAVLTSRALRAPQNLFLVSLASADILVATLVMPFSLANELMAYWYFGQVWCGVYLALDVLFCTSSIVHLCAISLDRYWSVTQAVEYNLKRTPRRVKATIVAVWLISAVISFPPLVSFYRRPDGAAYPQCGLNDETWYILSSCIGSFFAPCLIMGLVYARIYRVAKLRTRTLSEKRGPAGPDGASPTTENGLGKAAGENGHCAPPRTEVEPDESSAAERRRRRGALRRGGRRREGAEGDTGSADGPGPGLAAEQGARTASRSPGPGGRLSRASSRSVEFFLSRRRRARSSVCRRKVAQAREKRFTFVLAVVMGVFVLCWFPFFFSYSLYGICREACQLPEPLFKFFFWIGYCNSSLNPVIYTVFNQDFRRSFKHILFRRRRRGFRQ
T2 sequence (P19328 whole entry): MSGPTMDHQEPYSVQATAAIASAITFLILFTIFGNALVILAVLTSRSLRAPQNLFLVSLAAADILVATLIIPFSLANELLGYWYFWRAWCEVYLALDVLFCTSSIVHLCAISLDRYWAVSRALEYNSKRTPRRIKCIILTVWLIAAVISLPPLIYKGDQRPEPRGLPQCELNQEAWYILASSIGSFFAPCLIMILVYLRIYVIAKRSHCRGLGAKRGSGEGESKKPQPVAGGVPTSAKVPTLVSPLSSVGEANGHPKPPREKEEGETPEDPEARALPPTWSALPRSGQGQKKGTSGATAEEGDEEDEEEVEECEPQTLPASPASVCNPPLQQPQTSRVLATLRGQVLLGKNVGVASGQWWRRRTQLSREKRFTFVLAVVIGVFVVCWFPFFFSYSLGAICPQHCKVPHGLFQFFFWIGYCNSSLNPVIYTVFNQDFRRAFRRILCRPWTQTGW
T2 sequence (P22909 whole entry): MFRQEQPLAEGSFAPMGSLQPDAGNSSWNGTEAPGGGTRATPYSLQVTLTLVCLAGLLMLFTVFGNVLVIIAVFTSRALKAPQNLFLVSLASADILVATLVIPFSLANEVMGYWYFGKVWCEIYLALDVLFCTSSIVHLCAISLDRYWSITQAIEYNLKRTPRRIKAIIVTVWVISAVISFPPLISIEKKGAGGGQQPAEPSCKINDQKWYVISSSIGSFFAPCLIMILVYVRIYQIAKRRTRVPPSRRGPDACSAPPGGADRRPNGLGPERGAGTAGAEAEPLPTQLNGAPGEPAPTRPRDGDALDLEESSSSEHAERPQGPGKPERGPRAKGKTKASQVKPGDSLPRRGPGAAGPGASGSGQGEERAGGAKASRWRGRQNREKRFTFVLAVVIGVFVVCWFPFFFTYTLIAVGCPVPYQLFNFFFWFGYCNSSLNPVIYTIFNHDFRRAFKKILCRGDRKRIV

Sus scrofa = species: Sus scrofa; experiment: Calcium antagonistic activity was evaluated from the inhibition of CaCl2-induced contraction of depolarized pig coronary artery; format: functional
Rattus norvegicus = species: Rattus norvegicus; experiment: Calcium antagonistic activity was evaluated by in vitro inhibition of [3H]nitrendipine binding on rat cerebral cortex; format: functional
[3] = target: T1, Adrenergic receptor alpha-1; experiment: Alpha-1-adrenolytic activity was assessed from the ability to inhibit [3H]prazosin binding to rat cerebral cortex preparation; format: tissue-based
[4] = Rattus norvegicus, Cerebral cortex, 90 min

Compound | IC50 [1] | IC50 [2] | IC50 (Sus scrofa; Sus scrofa, Coronary artery) | IC50 (Rattus norvegicus; [4]) | IC50 [3] | IC50 (Sus scrofa) | IC50 (Rattus norvegicus)
COC(=O)C1=C(C)NC(C)=C(C(=O)OCCN(C)C[C@H]2COc3ccccc3O2)[C@@H]1c1cccc([N+](=O)[O-])c1.Cl (stereo in doubt; 6b) | > 0.00003 M | 140 nM | – | – | 2300 nM | 10 nM | 2.8 nM
CO/C(O)=C1\C(C)=NC(C)=C(C(=O)OCCN2CCC(n3c(O)nc4ccccc43)CC2)C1c1cccc([N+](=O)[O-])c1 (centres undefined) | 0.00001 M | 1600 nM | 1000 nM | 0.6 nM | 41 nM | – | –
CC1=NC(C)=C(C(=O)OC(C)CN(C)CC2COc3ccccc3O2)C(c2cccc([N+](=O)[O-])c2)/C1=C(\O)OC(C)C.Cl (centres undefined) | >> 0.00003 M | – | 150 nM | – | 3900 nM | – | 3.4 nM
COC(=O)C1=C(C)NC(C)=C(C(=O)OCCN(C)C[C@H]2COc3ccccc3O2)[C@@H]1c1cccc([N+](=O)[O-])c1.Cl (stereo in doubt; 6a) | 0.00001 M | 4000 nM | – | – | 2400 nM | 1.5 nM | 0.018 nM

Results, then the molecule that gave them:

IC50 [1] | IC50 [2] | IC50 (Sus scrofa; Sus scrofa, Coronary artery) | IC50 (Rattus norvegicus; [4]) | IC50 [3] | IC50 (Sus scrofa) | IC50 (Rattus norvegicus) | Compound
0.00007 M | 480 nM | 13 nM | 0.073 nM | 380 nM | – | – | CO/C(O)=C1\C(C)=NC(C)=C(C(=O)OCCN(C)C(C)COc2ccccc2)C1c1cccc([N+](=O)[O-])c1.Cl (centres undefined)
> 0.00001 M | 270 nM | 4 nM | 0.07 nM | 300 nM | – | – | CO/C(O)=C1\C(C)=NC(C)=C(C(=O)OCCN(C)CC2COc3ccccc3O2)C1c1ccccc1[N+](=O)[O-] (centres undefined)
> 0.0001 M | 16000 nM | > 10000 nM | 3.8 nM | 75000 nM | – | – | CO/C(O)=C1\C(C)=NC(C)=C(C(=O)OCCN(C)C(c2ccccc2)C2CCCCC2)C1c1cccc([N+](=O)[O-])c1.Cl (centres undefined)
0.00004 M | 480 nM | 4.5 nM | 0.1 nM | 500 nM | – | – | CO/C(O)=C1\C(C)=NC(C)=C(C(=O)OCCN(C)CC2COc3ccccc3O2)C1c1cccc([N+](=O)[O-])c1.Cl (centres undefined)
>> 0.0001 M | 470 nM | 3.8 nM | 0.05 nM | 1000 nM | – | – | CO/C(O)=C1\C(C)=NC(C)=C(C(=O)OC(C)CN(C)CC2COc3ccccc3O2)C1c1cccc([N+](=O)[O-])c1.Cl (centres undefined)
